From patent US9446051B2, “Neuroprotection and myelin repair using nestorone®” (The Population Council, Inc., priority 2009, dated 2016)

What was measured:
[1] = test system: neural progenitor cell (NPC); assay: Neural progenitor cell proliferation, BrdU chemiluminescence ELISA; type: cell-based, rat; settings: for proliferation of progenitor cells compared with progesterone: FIG. 3 and FIG. 4; for NPC proliferation (BrdU incorporation) compared with progesterone: at 24 hours, FIGS. 6A-D
Protocol: In vitro studies were carried out to determine neural progenitor cell (NPC) regeneration in rats. Cell proliferation was determined by S phase incorporation of BrdU. After 4 to 6 hours starvation (medium without supplements), rNPCs were loaded with 10 μM BrdU in the presence or absence of bFGF and varying concentrations of P4 or test progestins in unsupplemented maintenance medium for 1d. The rNPCs were then processed as described previously (1, 14). After subtracting the value of the blank (without BrdU loading), data were analyzed using a one-way ANOVA, followed by a Neuman-Keuls post hoc test.

[2] = test system: primary hippocampal neurons; assay: Neuroprotection of primary hippocampal neurons against glutamate, LDH release; type: cell-based; settings: for neuroprotective efficacy against 200 μM glutamate (LDH release) compared with progesterone: dose-response, FIGS. 7A-F
Protocol: The effect of NES and other progestins on CNS plasticity and the neuroprotective efficacy against glutamate toxicity has also been evaluated. LDH was measured, as a well-accepted assay, to determine such effect after exposure of the cells to glutamate, and the neuronal viability was assessed under the action of various progestins.
Comparisons of neuroprotection against neurodegenerative insults were carried out. Efficacy was determined in connection with the protection of primary hippocampal neurons against degeneration induced by excitoxic glutamate. Hippocampal neuronal cultures grown on […] culture plates for 7d in vitro were pretreated with vehicle alone or test compounds, followed by exposure to 200 μM glutamate as previously described (13). After glutamate exposure, cultures were washed with HEPES-buffered saline solution and replaced with fresh NBM containing the test compounds or combinations. Cultures were returned to the incubator and incubated for 24 hours prior to analysis of neuronal viability using colorimetric LDH release in the media. Dose-response analysis was conducted for each of the progestins tested, and the results are shown in FIGS. 7A-F. Neuroprotective efficiency was calculated as follows: NE=(Vsample−Vglutamate)/(Vsubcontrol−Vglutamate).

[3] = test system: androgenic, estrogenic and glucocorticoid responses; settings: cited from earlier work
[4] = test system: hippocampi of ovariectomized female Sprague Dawley rats; type: in vivo; settings: stated 'as noted above'
Protocol: The impact of the combination of 17β-estradiol (E2) and various progestins on neurogenesis and cell viability […] was also carried out. Young adult ovariectomized female Sprague Dawley rates were thus divided into six groups and received injection of either E2 alone or E2 combined with one of the progestins. Hippocampi were isolated 24 hours later for Western blot analysis and flow cytometry to determine the impact of treatment on cell viability and neurogenesis respectively. The expression level of PCNA was assessed to determine the impact of the treatment compounds on entry into the cell cycle required for neurogenesis.

[5] = test system: primary hippocampal neuron cultures; settings: cited from earlier work; for protection against glutamate toxicity: alone or in combination, 48 hours before glutamate insult
Bax/Bcl-2 = assay: In vivo apoptotic activity, Bax/Bcl-2 ratio by Western blot
From the text: The effects of various progestins on apoptosis was studied using Western blot analysis to determine the expression level of Bax, an apoptosis mediator by […] to the mitochondria to release apoptotic factors such as cytochrome c and Bcl-2. The ratio of Bax to Bcl-2 was used as an indicator of in vivo apoptotic activity.

[6] = test system: hippocampus of Sprague-Dawley ovariectomized female rats; assay: In vivo NPC proliferation and cell viability in ovariectomized rats (Western blot, FACS of BrdU+ cells); design: species or system rat; settings: for PCNA expression at the protein level: FIG. 8A
Protocol: The generalized ability of the above in vitro findings to the in vivo condition were investigated. Analyses of NPC proliferation in rats and cell viability were conducted in three-month-old Sprague-Dawley ovariectomized female rats with various of the progestins. […] In order to assess the total number of BrdU+ cells, the contralateral hippocampal hemisphere used for protein analysis was fixed and processed by FACS analysis. The total number of BrdU+ cells per each hippocampus was determined and normalized to that of vehicle control. […] In order to measure cell viability in terms of promotion of mitochondrial function and reduction in oxidative damage expression of the alpha subunit of ATP synthase-Complex V (CVα) of the mitochondrial oxidative phosphorylation pathway was assessed by Western blot analysis.

[7] = test system: organotypic neonatal rat or mouse cerebellar slice culture; assay: Myelination in organotypic cerebellar slice culture, measured by myelin basic protein (MBP) immunoreactivity; type: cell-based
From the text: In experiments conducted in organotypic neonatal rat or mouse cerebellar slice culture, progesterone accelerated axon myelination (13,14).

PR^lacz mice with MCAO = assay: Transient middle cerebral artery occlusion (MCAO), steroid treatment after reperfusion; type: in vivo, mouse
Protocol: In experiments conducted using progesterone receptor (PR) deficient mice (PR^−/−) compared with PR^+/− and PR^+/+ mice and both progesterone and Nestorone® were administered after ischemia and reperfusion.
In order to test the effect of steroid treatments after reperfusion, adult male PR^lacz mice were anesthetized and the middle cerebral artery (MCA) was occluded for one hour with an intraluminal filament. After ligature of the left common carotid artery, a nylon monofilament coated with thermo-melting glue was introduced through an arteriotomy performed on the external carotid artery and advanced into the internal carotid artery. Occlusion of the MCA was controlled by monitoring the cerebral blood flow within the MCA territory by laser Doppler flowmetry. The filament was withdrawn one hour after occlusion to allow reperfusion, and the common carotid artery ligature was also removed. The mice were randomly and blindly assigned to either progesterone, allopregnanolone or Nestorone®, or vehicle-treated (sesame oil; sigma). All of the steroids were initially dissolved in a small volume of ethanol and further diluted in sesame oil to obtain the desired final steroid concentrations. Injections were given interperitoneally (IP) at 1, 6, and 24 hours after MCA occlusion (MCAO) according to established neuroprotective protocols. Treated mice were killed at 48 hours after MCAO.
Cerebral infarct volumes and areas were determined after triphenyltetrazolium chloride (TTC) staining of brain sections. The details of this procedure are set forth in “Progesterone Receptors: A Key For Neuroprotection In Experimental Stroke,” Endocrinology, August 2012, 153(8), pp. 1-11, which is incorporated herein by reference thereto in its entirety. […] In FIGS. 11, 12 and 13, after the administration of progesterone and Nestorone®, in neuronal density the infarct (FIG. 11) and the penumbra (FIG. 12) can clearly be shown. In FIG. 13 the decrease in […] in the penumbra after administration of progesterone and Nestorone® is also clearly shown.

[8] = indicator of in vivo apoptotic activity

C#C[C@]1(O)CC[C@H]2[C@@H]3CCC4=C(CCC(=O)C4)[C@H]3CC[C@@]21C [norethynodrel]
proliferation of progenitor cells compared with progesterone [1]: more proliferative than progesterone
NPC proliferation (BrdU incorporation) compared with progesterone, high nanomolar ranges ([1]; high nanomolar ranges): significantly more efficacious than progesterone
NPC proliferation (BrdU incorporation) compared with progesterone, low nanomolar range ([1]; low nanomolar range): comparable effects to progesterone
neuroprotective efficacy against 200 μM glutamate (LDH release) compared with progesterone [2]: more potent than progesterone at minimal effective concentrations
androgenic response [3]: exert androgenic and estrogenic responses
estrogenic response [3]: exert androgenic and estrogenic responses

CC(=O)O[C@]1(C(C)=O)CC[C@H]2[C@@H]3C[C@H](C)C4=CC(=O)CC[C@]4(C)[C@H]3CC[C@@]21C [MPA, medroxyprogesterone acetate]
cell proliferation [4]: increased cell proliferation
proliferation of progenitor cells compared with progesterone [1]: antagonistic
NPC proliferation (BrdU incorporation) compared with progesterone [1]: significantly inhibited proliferation at multiple concentrations
protection against glutamate toxicity [5]: failed to protect against glutamate toxicity
effect on estrogen-induced neuroprotection when coadministered ([5]; coadministered with 17β-E2): attenuated the estrogen-induced neuroprotection
ratio of Bax/Bcl-2 expression (Bax/Bcl-2; in vivo): significantly increased
neuroprotective efficacy against 200 μM glutamate (LDH release) compared with progesterone [2]: less potent than progesterone
androgenic response [3]: induce androgenic responses
glucocorticoid response [3]: induces both androgenic and glucocorticoid responses
total number of BrdU+ cells per hippocampus ([6]; FACS, normalized to vehicle control, FIG. 8B): no significant effect on cell proliferation
PCNA expression at the protein level ([6]; Western blot): no significant effect
expression of alpha subunit of ATP synthase-Complex V (CVα) ([6]; Western blot, FIG. 8C): no significant effect

CC(=O)[C@H]1CC[C@H]2[C@@H]3CCC4=CC(=O)CC[C@@H]4[C@H]3CC[C@]12C [19-norprogesterone]
protection against glutamate toxicity [5]: protected against glutamate toxicity

CC(=O)[C@H]1CC[C@H]2[C@@H]3CCC4=CC(=O)CC[C@]4(C)[C@H]3CC[C@]12C [progesterone]
proliferation of progenitor cells compared with progesterone [1]: increases the proliferation
NPC proliferation (BrdU incorporation) compared with progesterone [1]: comparably efficacious at their EC100 concentrations
protection against glutamate toxicity [5]: protected against glutamate toxicity
ratio of Bax/Bcl-2 expression (Bax/Bcl-2; [8]): no effect
concentration of equal promyelinating activity ([7]; NES at 20 μm as active as PROG at 50 μm (FIG. 1)): 50 μm
myelination in cerebellar slices from PR knockout mice ([7]; PR knockout mice): did not increase myelination
myelination measured by myelin basic protein (MBP) immunoreactivity ([7]; cerebellar slice culture): promote dose-dependent myelination
neuroprotective efficacy against glutamate toxicity (LDH) ([2]; FIG. 5, NES and PROG at 10−7M): exerted the higher efficacy
efficient neuroprotective dose (PR^lacz mice with MCAO; after stroke): 8 mg/kg
microglial density in the penumbra (neuroinflammatory responses) (PR^lacz mice with MCAO; treatment after stroke): reduced microglial density
neuronal density in the infarct and in the penumbra (PR^lacz mice with MCAO; treatment after stroke): significantly increases the neuronal density
CDC2 protein expression ([6]; Western blot): significantly increased

C#C[C@]1(OC(C)=O)CC[C@H]2[C@@H]3CCC4=CC(=O)CC[C@@H]4[C@H]3CC[C@@]21C [norethindrone acetate]
proliferation of progenitor cells compared with progesterone [1]: antagonistic
NPC proliferation (BrdU incorporation) compared with progesterone [1]: minimal or no effect on proliferation

C#C[C@]1(O)CC[C@H]2[C@@H]3CCC4=CC(=O)CC[C@@H]4[C@H]3CC[C@@]21C [norethindrone]
neuroprotective efficacy against 200 μM glutamate (LDH release) compared with progesterone [2]: less potent than progesterone
androgenic response [3]: exert androgenic and estrogenic responses
estrogenic response [3]: exert androgenic and estrogenic responses

C[C@]12CC[C@@H]3c4ccc(O)cc4CC[C@H]3[C@@H]1CC[C@@H]2O [estradiol, 17β-estradiol]
protection against glutamate toxicity [5]: protected against glutamate toxicity

C#C[C@]1(OC(C)=O)CC[C@H]2[C@@H]3CCC4=CC(=NO)CC[C@@H]4[C@H]3CC[C@@]21CC (mixture of isomers) [norgestimate]
proliferation of progenitor cells compared with progesterone [1]: more proliferative than progesterone
NPC proliferation (BrdU incorporation) compared with progesterone [1]: more potent in cell proliferation than progesterone at all concentrations
neuroprotective efficacy against 200 μM glutamate (LDH release) compared with progesterone [2]: less potent than progesterone

C#C[C@]1(O)CC[C@H]2[C@@H]3CCC4=CC(=O)CC[C@@H]4[C@H]3CC[C@@]21CC [levonorgestrel]
ratio of Bax/Bcl-2 expression (Bax/Bcl-2; [8]): significantly increased
PCNA expression at the protein level ([6]; Western blot): no significant effect
